Data published in patent publication US20230312587A1, “PTERIDINONE COMPOUNDS AND USES THEREOF” (Vertex Pharmaceutical Incorporated, priority 2018, published 2023).
Like-named read-outs stand apart in the source and are kept apart here.

Test system: β-catenin-TCF-mediated reporter transcription activity in Colo 205 cells
Assay: Colo 205 reporter assay (TCF/LEF luciferase)
Assay type: cell-based
How it was run: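 Luciferase signal from a TCF/LEF-driven reporter, stably integrated in Colo 205 colon cancer cells, was measured 5 h after compound addition.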

[1] = Homo sapiens, COLO 205, 5 h, Colo 205 TCF/LEF luciferase reporter, five hours after addition of compound, read-out: TCF reporter Colo205 IC50
[2] = Homo sapiens, COLO 205, 5 h, R-isomer at C2 (corresponding to C2 S-isomer), Colo 205 TCF/LEF luciferase reporter, 5 h, read-out: TCF reporter Colo205 IC50

CC[C@H]1C(=O)Nc2c(C)nc(N[C@H]3C[C@@H](Cn4ccc(C(F)(F)F)n4)C3)nc2N1C [Compound 692, (S)-7-ethyl-4,8-dimethyl-2-((cis-3-((3-(trifluoromethyl)-1H-pyrazol-1-yl)methyl)cyclobutyl)amino)-7,8-dihydropteridin-6(5H)-one]
IC50 [1]: 300 to 1000 nM

CN1C(=O)C(C)(C)Nc2nc(NCc3cnn(Cc4ccc(F)cc4)c3)ncc21 [Compound 225, 2-(((1-(4-Fluorobenzyl)-1H-pyrazol-4-yl)methyl)amino)-5,7,7-trimethyl-7,8-dihydropteridin-6(5H)-one]
IC50 [1]: ≥ 5000 nM

Cc1nc(N[C@H]2C[C@@H](COc3ccc(F)nc3)C2)nc2c1NC(=O)[C@H](C)N2C [Compound 270, (7S)-2-((cis-3-(((6-fluoropyridin-3-yl)oxy)methyl)cyclobutyl)amino)-4,7,8-trimethyl-7,8-dihydropteridin-6(5H)-one]
IC50 [1]: 300 to 1000 nM

Cc1nc(N[C@H]2C[C@@H](NC(=O)N3CCC(F)(F)CC3)C2)nc2c1NC(=O)[C@H](C(C)C)N2C [Compound 525, 4,4-difluoro-N-(cis-3-(((S)-7-isopropyl-4,8-dimethyl-6-oxo-5,6,7,8-tetrahydropteridin-2-yl)amino)cyclobutyl)piperidine-1-carboxamide]
IC50 [1]: ≥ 5000 nM

Cc1nc(N[C@H]2C[C@@H](NC(=O)c3cc(F)c(F)c(F)c3)C2)nc2c1NC(=O)[C@H](C)N2C [Compound 475, 3,4,5-trifluoro-N-(cis-3-(((S)-4,7,8-trimethyl-6-oxo-5,6,7,8-tetrahydropteridin-2-yl)amino)cyclobutyl)benzamide]
IC50 [1]: 1000 to 5000 nM

Cc1nc(N[C@H]2C[C@H](Oc3ccc(C(F)(F)F)nc3)C2)nc2c1NC(=O)C1(CCOC1)N2C (relative stereo) [Compound 689, 4′,8′-dimethyl-2′-((trans-3-((6-(trifluoromethyl)pyridin-3-yl)oxy)cyclobutyl)amino)-4,5,5′,8′-tetrahydro-2H,6′H-spiro[furan-3,7′-pteridin]-6′-one]
IC50 [1]: 300 to 1000 nM

Cc1nc(NCc2cnn([C@@H](C)Cc3ccccc3)c2)nc2c1NC(=O)[C@H](C)N2C [Compound 102, (7S)-4,7,8-trimethyl-2-(((1-((S)-1-phenylpropan-2-yl)-1H-pyrazol-4-yl)methyl)amino)-7,8-dihydropteridin-6(5H)-one]
IC50 [1]: 1000 to 5000 nM

Cc1cc(F)ncc1Cn1cc(CNc2nc(C)c3c(n2)N(C)[C@H](C(C)C)C(=O)N3)cn1 [Compound I-1643]
IC50 [2]: 1000 to 5000 nM

Cc1nc(N[C@H]2C[C@H](Oc3cc(F)c(O)c(F)c3)C2)nc2c1NC(=O)[C@H](C)N2C [Compound 349, (7S)-2-((trans-3-(3,5-difluoro-4-hydroxyphenoxy)cyclobutyl)amino)-4,7,8-trimethyl-7,8-dihydropteridin-6(5H)-one]
IC50 [1]: ≥ 5000 nM

Cc1nc(NCc2cnn(Cc3ccc(C4CC4)nc3)c2)nc2c1NC(=O)[C@H](C(C)C)N2C [Compound 442, (7S)-2-(((1-((6-cyclopropylpyridin-3-yl)methyl)-1H-pyrazol-4-yl)methyl)amino)-7-isopropyl-4,8-dimethyl-7,8-dihydropteridin-6(5H)-one]
IC50 [1]: < 300 nM

Cc1nc(N[C@H]2C[C@H](Nc3cnc(C(F)(F)F)cn3)C2)nc2c1NC(=O)[C@H](C)N2C [Compound 579, (S)-4,7,8-trimethyl-2-((trans-3-((5-(trifluoromethyl)pyrazin-2-yl)amino)cyclobutyl)amino)-7,8-dihydropteridin-6(5H)-one]
IC50 [1]: 1000 to 5000 nM

Cc1nc(N[C@H]2C[C@@H](COc3ccnn3C)C2)nc2c1NC(=O)[C@H](C(C)C)N2C [Compound 693, (S)-7-isopropyl-4,8-dimethyl-2-((cis-3-(((1-methyl-1H-pyrazol-5-yl)oxy)methyl)cyclobutyl)amino)-7,8-dihydropteridin-6(5H)-one]
IC50 [1]: ≥ 5000 nM

Cc1nc(NCc2ccc(-c3ccc(F)cc3)o2)nc2c1NC(=O)[C@H](C)N2C [Compound 40, (7S)-2-(((5-(4-Fluorophenyl)furan-2-yl)methyl)amino)-4,7,8-trimethyl-7,8-dihydropteridin-6(5H)-one]
IC50 [1]: 1000 to 5000 nM

Cc1nc(NCc2cnn(Cc3ccc(C(F)(F)F)nc3)c2)nc2c1NC(=O)[C@@H](CC(F)(F)F)N2C [Compound I-1645]
IC50 [2]: 1000 to 5000 nM

C[C@H]1C(=O)Nc2cnc(NCc3cnn(Cc4ccc(F)c(F)c4)c3)nc2N1C [Compound 141, (7S)-2-(((1-(3,4-difluorobenzyl)-1H-pyrazol-4-yl)methyl)amino)-7,8-dimethyl-7,8-dihydropteridin-6(5H)-one]
IC50 [1]: < 300 nM

Cc1nc(N[C@H]2C[C@@H](Cn3nccc3C(F)(F)F)C2)nc2c1NC(=O)[C@H](C(C)C)N2C [Compound 512, (S)-7-isopropyl-4,8-dimethyl-2-((cis-3-((5-(trifluoromethyl)-1H-pyrazol-1-yl)methyl)cyclobutyl)amino)-7,8-dihydropteridin-6(5H)-one]
IC50 [1]: < 300 nM

C[C@H]1C(=O)Nc2cnc(NCc3ccc(Oc4ccc(F)cc4)nc3)nc2N1C [Compound 56, (7S)-2-(((6-(4-fluorophenoxy)pyridin-3-yl)methyl)amino)-7,8-dimethyl-7,8-dihydropteridin-6(5H)-one]
IC50 [1]: < 300 nM

Cc1nc(N[C@H]2C[C@@H](COc3ccc(F)cc3C#N)C2)nc2c1NC(=O)[C@H](C)N2C [Compound 277, 5-fluoro-2-((cis-3-(((7S)-4,7,8-trimethyl-6-oxo-5,6,7,8-tetrahydropteridin-2-yl)amino)cyclobutyl)methoxy)benzonitrile]
IC50 [1]: < 300 nM

Cc1nc(NCc2cnn(Cc3cccnc3C(F)(F)F)c2)nc2c1NC(=O)[C@H](C)N2C [Compound 183]
IC50 (Colo 205 TCF/LEF luciferase reporter, five hours after addition of compound, read-out: TCF reporter Colo205 IC50): < 300 nM

Cc1nc(NCc2cnn(CCc3cc(F)cc(F)c3)c2)nc2c1NC(=O)[C@H](C)N2C [Compound 107, (7S)-2-(((1-(3,5-difluorophenethyl)-1H-pyrazol-4-yl)methyl)amino)-4,7,8-trimethyl-7,8-dihydropteridin-6(5H)-one]
IC50 [1]: < 300 nM

COc1cc(O[C@H]2C[C@H](Nc3nc(C)c4c(n3)N(C)[C@@H](C)C(=O)N4C)C2)ccc1F [Compound 373, (7S)-2-((trans-3-(4-fluoro-3-methoxyphenoxy)cyclobutyl)amino)-4,5,7,8-tetramethyl-7,8-dihydropteridin-6(5H)-one]
IC50 [1]: 300 to 1000 nM

Cc1nc(N(Cc2cnn(Cc3ccc(C(F)(F)F)nc3)c2)C(=O)NC2CCCCC2)nc2c1NC(=O)[C@H](C)N2C [Compound 401, (7S)-3-cyclohexyl-1-((1-((6-(trifluoromethyl)pyridin-3-yl)methyl)-1H-pyrazol-4-yl)methyl)-1-(4,7,8-trimethyl-6-oxo-5,6,7,8-tetrahydropteridin-2-yl)urea]
IC50 (Homo sapiens, COLO 205, 5 h, Colo 205 cells with stably transfected TCF/LEF luciferase reporter, five hours after addition of compound, read-out: TCF reporter Colo205): ≥ 5000 nM

Cc1nc(NCc2cnn(Cc3ccc(C(F)(F)F)nc3)c2)nc2c1N(C)C(=O)[C@@H](C)N2C [Compound I-1363]
IC50 [2]: 300 to 1000 nM

Cc1nc(NCc2cnn(Cc3ccc(F)cc3C(F)(F)F)c2)nc2c1NC(=O)[C@H](C)N2C [Compound 67, (7S)-2-(((1-(4-fluoro-2-(trifluoromethyl)benzyl)-1H-pyrazol-4-yl)methyl)amino)-4,7,8-trimethyl-7,8-dihydropteridin-6(5H)-one]
IC50 [1]: < 300 nM

Cc1nc(NCc2cnn(CCc3ccc(F)cc3F)c2)nc2c1NC(=O)[C@H](C)N2C [Compound 106, (7S)-2-(((1-(2,4-difluorophenethyl)-1H-pyrazol-4-yl)methyl)amino)-4,7,8-trimethyl-7,8-dihydropteridin-6(5H)-one]
IC50 [1]: < 300 nM

Cc1nc(NCc2cnn(Cc3ccc(C(F)(F)F)nc3)c2)nc2c1NC(=O)[C@H]([C@@H](C)O)N2C [Compound 744, (S)-7-((R)-1-hydroxyethyl)-4,8-dimethyl-2-(((1-((6-(trifluoromethyl)pyridin-3-yl)methyl)-1H-pyrazol-4-yl)methyl)amino)-7,8-dihydropteridin-6(5H)-one]
IC50 [1]: 300 to 1000 nM

CC[C@H]1C(=O)Nc2c(C)nc(NCc3cnn(Cc4ccc(Cl)nc4)c3)nc2N1C [Compound 432, (7S)-2-(((1-((6-chloropyridin-3-yl)methyl)-1H-pyrazol-4-yl)methyl)amino)-7-ethyl-4,8-dimethyl-7,8-dihydropteridin-6(5H)-one]
IC50 [1]: < 300 nM

Cc1nc(NC2CN(C(=O)Cc3ccc(F)cc3)C2)nc2c1NC(=O)[C@H](C(C)C)N2C [Compound 618, (S)-2-((1-(2-(4-fluorophenyl)acetyl)azetidin-3-yl)amino)-7-isopropyl-4,8-dimethyl-7,8-dihydropteridin-6(5H)-one]
IC50 [1]: 300 to 1000 nM

C#CC[C@H]1C(=O)N(C)c2cnc(NCc3cnn(Cc4cc(F)c(F)c(F)c4)c3)nc2N1C [Compound 25, (7S)-5,8-dimethyl-7-(prop-2-yn-1-yl)-2-(((1-(3,4,5-trifluorobenzyl)-1H-pyrazol-4-yl)methyl)amino)-7,8-dihydropteridin-6(5H)-one]
IC50 [1]: < 300 nM

Cc1nc(NC2CN(C(=O)c3csc(Cl)n3)C2)nc2c1NC(=O)[C@H](C(C)C)N2C [Compound 630, (S)-2-((1-(2-chlorothiazole-4-carbonyl)azetidin-3-yl)amino)-7-isopropyl-4,8-dimethyl-7,8-dihydropteridin-6(5H)-one]
IC50 [1]: 1000 to 5000 nM

Cc1nc(N[C@H]2C[C@@H](Cn3ccc(Cl)n3)C2)nc2c1NC(=O)[C@H](C(C)C)N2C [Compound 583, (S)-2-((cis-3-((3-chloro-1H-pyrazol-1-yl)methyl)cyclobutyl)amino)-7-isopropyl-4,8-dimethyl-7,8-dihydropteridin-6(5H)-one]
IC50 [1]: < 300 nM

Cc1nc(N[C@H]2C[C@H](Oc3ccc(F)c(F)c3F)C2)nc2c1NC(=O)[C@H](C)N2C [Compound 291, (7S)-4,7,8-trimethyl-2-((trans 3-(2,3,4-trifluorophenoxy)cyclobutyl)amino)-7,8-dihydropteridin-6(5H)-one]
IC50 [1]: < 300 nM
